Test [1] addresses FPR2 (Homo sapiens (Human), UniProt P25090). The test can be described thus: Agonistic activity (calcium FLIPR) in hFPR2-Aq-CHO cells. It counts as cell-based. To be noted: FLIPR Calcium 5 dye fluorescence, agonistic response. The method, then: (§1) Cells (hFPR1-Gα15-CHO or hFPR2-Aq-CHO) are suspended in 10 mL of respective complete medium (F12(1×) HAM media; 10% HI-FBS; 0.1 mg/ml Hygromycin B and 0.2 mg/ml Zeocin [for hFPR1 only]; 0.4 mg/mL Geneticin and 0.25 mg/ml Zeocin [for hFPR2-Aq only]) and viability is checked using Trypan Blue exclusion. After washing, the cells are plated at 10,000 cells per well in 40 μL complete medium in a 384-well sterile clear bottom black plate and incubated in a 5% CO2 incubator at 37° C. for 18 hours. Plating media is removed from each well by decanting and gentle tapping before 30 μL of 0.5× Calcium 5 dye solution (0.5×FLIPR Calcium 5 dye (Molecular devices, R8186)); HBSS; 20 mM HEPES; 2.5 mM Probenecid; 0.025% Pluronic F-127; pH adjusted to 7.4) is added to each well and the plate is then incubated at 37° C. for 30 minutes. For the assay the plate is equilibrated at room temperature for 10 minutes before placing it in the FLIPR. Compounds are dissolved in DMSO and serially diluted over an 11 point half log (3.16 fold) dilution (2 mM to 20 nM). Compounds are then diluted 1:50 in assay buffer (HBSS; 20 mM HEPES; 2.5 mM Probenecid; 0.05% gelatin; 0.1% BSA; pH adjusted to 7.4) just before performing the assay. Compounds are finally added to the respective wells of the cell plate (final assay concentration 10 μM to 100 pM) using the FLIPR (e.g. FLIPR-Tetra, Molecular Devices) and fluorescence readings are captured for 5 minutes. The increase in fluorescence from the basal reading in the presence of the compounds is compared with that of the control wells (wells having no compound) to calculate the activity of the compounds. The EC50 values of the compounds can be determined using e.g. Graph pad Prism software.
(§2) Assay Method for Measuring Agonistic Activity of Compounds in hFPR1-Gα15-CHO and hFPR2-Aq-CHO Cell
(§3) Cryo-vial containing 6×10^6 cells (hFPR1-Gα15-CHO or hFPR2-Aq-CHO) was thawed in a 37° C. water bath. Cells were suspended in 10 ml of respective complete growth media (F12(1×) HAM media (Gibco; Cat#11765); 10% HI-FBS (Gibco; Cat#10082); 0.1 mg/ml Hygromycin B (Invitrogen; Cat#10687-010) [for hFPR1 only]; 0.2 mg/ml Zeocin (Invitrogen; Cat#R25001) [for hFPR1 only]; 0.4 mg/ml Geneticin (Gibco; Cat#10131) [for hFPR2-Aq only]; 0.25 mg/ml Zeocin (Invitrogen; Cat#R25001) [for hFPR2-Aq only]) in a 15 ml centrifuge tube. The cell viability was checked with the help of Trypan Blue dye. Upon washing the cells, those were plated in a 384-well sterile clear bottom black plate (Greiner Bioone Cat#781091) so that, each well contained 10,000 cells in 40 μl complete growth media. The plate was incubated in a 5% CO2 incubator at 37° C. for 18 hours.
(§4) Before assay on the next day, the cell plating media was removed from each well of the plate by decanting and gentle tapping. 30 μl, 0.11 of 0.5× Calcium 5 dye solution (0.5×FLIPR Calcium 5 dye (Molecular devices Cat# R8186); HBSS (Invitrogen; Cat#14025); 20 mM HEPES (Sigma; Cat#H0887); 2.5 mM Probenecid (Sigma; Cat#P8761); 0.025% Pluronic F-127 (Sigma; Cat#P2443); pH adjusted to 7.4) was added to each well. The plate was then incubated at 37° C. for 30 minutes. Following which the plate was equilibrated at room temperature for 10 minutes before placing it in a 384 well FLIPR for assay. Compounds were dissolved in DMSO and serially diluted following 11 point half log (3.16 fold) dilution with a starting concentration of 2 mM (Final assay concentration 10 μM). Aliquots of above mentioned each dilution was mixed with assay buffer (HBSS (Invitrogen; Cat#14025); 20 mM HEPES (Sigma; Cat#H0887); 2.5 mM Probenecid (Sigma; Cat#P8761); 0.05% gelatin (Sigma; Cat#G1890); 0.1% BSA (Sigma; Cat#A3059); pH adjusted to 7.4) just before performing the assay. Compounds were added to the respective wells of the assay ready cell plate with the help of the FLIPR (FLIPR Tetra) and fluorescence readings were captured for 5 minutes to measure any agonistic response of the compounds. […]

In test [2] the target is FPR1 (Homo sapiens (Human), UniProt P21462). Kind of test: Agonistic activity (calcium FLIPR) in hFPR1-Gα15-CHO cells. It counts as cell-based. Conditions: FLIPR Calcium 5 dye fluorescence, agonistic response. As to the method:
as §1, §2, §3, §4

Molecules are shown by their SMILES. Bounds are passed on as bounds.

Chain of FPR1 (P21462 whole entry): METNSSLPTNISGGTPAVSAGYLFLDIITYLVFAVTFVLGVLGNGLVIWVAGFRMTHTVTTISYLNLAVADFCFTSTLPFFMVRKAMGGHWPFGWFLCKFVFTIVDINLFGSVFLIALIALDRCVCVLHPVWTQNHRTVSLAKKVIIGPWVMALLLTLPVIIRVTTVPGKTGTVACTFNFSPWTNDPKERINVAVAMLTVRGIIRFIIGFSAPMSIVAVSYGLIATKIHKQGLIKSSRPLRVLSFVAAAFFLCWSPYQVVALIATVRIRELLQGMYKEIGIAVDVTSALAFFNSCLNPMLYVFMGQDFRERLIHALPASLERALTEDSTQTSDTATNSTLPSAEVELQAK
Chain of FPR2 (P25090 whole entry): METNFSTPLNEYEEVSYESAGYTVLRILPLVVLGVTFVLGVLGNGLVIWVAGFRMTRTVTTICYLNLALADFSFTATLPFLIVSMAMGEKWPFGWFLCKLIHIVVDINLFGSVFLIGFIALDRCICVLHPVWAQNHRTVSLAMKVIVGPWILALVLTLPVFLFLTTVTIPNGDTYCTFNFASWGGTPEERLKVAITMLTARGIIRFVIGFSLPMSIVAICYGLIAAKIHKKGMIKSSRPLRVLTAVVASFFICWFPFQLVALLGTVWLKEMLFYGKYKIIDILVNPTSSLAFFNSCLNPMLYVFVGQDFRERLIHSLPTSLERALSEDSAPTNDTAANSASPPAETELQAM

For orientation: EC50 means the concentration at which the effect is half-maximal. For the compound `COc1ccc([C@@H]2CC(=O)NC[C@H]2NC(=O)Nc2ccc(Cl)cc2)cc1` (racemic) [Example 1, rac-trans-1-(4-chlorophenyl)-3-(4-(4-methoxyphenyl)-6-oxopiperidin-3-yl)urea], the EC50 is less than 1 nM in test [1] and 1 to 1000 nM in test [2]. For `COc1ccc([C@@H]2CCN(C(C)=O)C[C@H]2NC(=O)Nc2ccc(Cl)cc2)cc1` (racemic) [Example 2, rac-trans-1-(1-acetyl-4-(4-methoxyphenyl)piperidin-3-yl)-3-(4-chlorophenyl)urea], the EC50 in test [1] and in test [2] was less than 1 nM in each case. In the case of `COc1ccc([C@@H]2CC(=O)NC[C@H]2NC(=O)Nc2ccc(Br)cc2)cc1` (racemic) [Example 3, rac-trans-1-(4-bromophenyl)-3-(4-(4-methoxyphenyl)-6-oxopiperidin-3-yl)urea], the results for the EC50 in test [1] and in test [2] were less than 1 nM and 1 to 1000 nM, respectively.

As to `COc1ccc([C@@H]2CCNC[C@H]2NC(=O)Nc2ccc(Cl)cc2)cc1` (racemic) [Example 4, rac-trans-1-(4-chlorophenyl)-3-(4-(4-methoxyphenyl)piperidin-3-yl)urea], the 50% effective concentration (EC50) is less than 1 nM in test [1] and 1 to 1000 nM in test [2]. Consider `COc1cc(F)c([C@@H]2CCN(C(C)=O)C[C@H]2NC(=O)Nc2ccc(Cl)cc2)c(F)c1` (racemic) [Example 5, rac-trans-1-(1-acetyl-4-(2,6-difluoro-4-methoxyphenyl)piperidin-3-yl)-3-(4-chlorophenyl)urea], for which the values for the 50% effective concentration (EC50) in test [1] and in test [2] were less than 1 nM and 1 to 1000 nM, respectively. Turning to `COc1ccc([C@@H]2CCNC[C@H]2NC(=O)Nc2ccc(Br)cc2)cc1` (racemic) [Example 6, rac-trans-1-(4-bromophenyl)-3-(4-(4-methoxyphenyl)piperidin-3-yl)urea], the EC50 was less than 1 nM in test [1] and 1 to 1000 nM in test [2]. On the same counts, the results for `COc1cc(F)c([C@@H]2CCNC[C@H]2NC(=O)Nc2ccc(Br)cc2)c(F)c1` (racemic) [Example 8, rac-trans-1-(4-bromophenyl)-3-(4-(2,6-difluoro-4-methoxyphenyl)piperidin-3-yl)urea] are less than 1 nM and 1 to 1000 nM. Regarding `COc1cc(F)c([C@@H]2CCNC[C@H]2NC(=O)Nc2ccc(Cl)cc2)c(F)c1` (racemic) [Example 9, rac-trans-1-(4-chlorophenyl)-3-(4-(2,6-difluoro-4-methoxyphenyl)piperidin-3-yl)urea], the figures for the EC50 in test [1] and in test [2] were less than 1 nM and 1 to 1000 nM, respectively.

As for `COc1ccc([C@@H]2CCN(C(=O)C3CC3)C[C@H]2NC(=O)Nc2ccc(Cl)cc2)cc1` (racemic) [Example 12, rac-trans-1-(4-chlorophenyl)-3-(1-(cyclopropanecarbonyl)-4-(4-methoxyphenyl)piperidin-3-yl)urea], the EC50 in test [1] and in test [2] was less than 1 nM each time.

`COc1ccc([C@@H]2CCN(C(=O)CO)C[C@H]2NC(=O)Nc2ccc(Cl)cc2)cc1` (racemic) [Example 13, rac-trans-1-(4-chlorophenyl)-3-(1-(2-hydroxyacetyl)-4-(4-methoxyphenyl)piperidin-3-yl)urea]: the half-maximal effective concentration (EC50) in test [1] and in test [2] was less than 1 nM in each case.

On to `COc1ccc([C@@H]2CCN(C(=O)C(C)(F)F)C[C@H]2NC(=O)Nc2ccc(Cl)cc2)cc1` (racemic) [Example 14, rac-trans-1-(4-chlorophenyl)-3-(1-(2,2-difluoropropanoyl)-4-(4-methoxyphenyl)piperidin-3-yl)urea], for which the EC50 in test [1] and in test [2] was less than 1 nM each time. For the compound `COCCC(=O)N1CC[C@@H](c2ccc(OC)cc2)[C@H](NC(=O)Nc2ccc(Cl)cc2)C1` (racemic) [Example 15, rac-trans-1-(4-chlorophenyl)-3-(4-(4-methoxyphenyl)-1-(3-methoxypropanoyl)piperidin-3-yl)urea], the EC50 in test [1] and in test [2] was less than 1 nM throughout. As for `COc1ccc([C@@H]2CCN(C(=O)C3CCOCC3)C[C@H]2NC(=O)Nc2ccc(Cl)cc2)cc1` (racemic) [Example 16, rac-trans-1-(4-chlorophenyl)-3-(4-(4-methoxyphenyl)-1-(tetrahydro-2H-pyran-4-carbonyl)piperidin-3-yl)urea], the concentration giving a half-maximal response (EC50) in test [1] and in test [2] was less than 1 nM throughout. Turning to `COc1ccc([C@@H]2CCN(C(=O)C(C)C)C[C@H]2NC(=O)Nc2ccc(Cl)cc2)cc1` (racemic) [Example 17, rac-trans-1-(4-chlorophenyl)-3-(1-isobutyryl-4-(4-methoxyphenyl)piperidin-3-yl)urea], the EC50 in test [1] and in test [2] was less than 1 nM each time. For `COc1ccc([C@@H]2CCN(C(=O)CC(C)C)C[C@H]2NC(=O)Nc2ccc(Cl)cc2)cc1` (racemic) [Example 18, rac-trans-1-(4-chlorophenyl)-3-[4-(4-methoxyphenyl)-1-(3-methyl-butanoyl)-piperidin-3-yl]-urea], the EC50 in test [1] and in test [2] was less than 1 nM each time. Regarding `COc1ccc([C@@H]2CCN(C(C)=O)C[C@H]2NC(=O)Nc2ccc(Cl)nc2)cc1` (racemic) [Example 19, rac-trans-1-(1-acetyl-4-(4-methoxyphenyl)piperidin-3-yl)-3-(6-chloropyridin-3-yl)urea], the concentration giving a half-maximal response (EC50) in test [1] and in test [2] was 1 to 1000 nM each time. For the compound `COc1ccc([C@@H]2CC(=O)N(CC(N)=O)C[C@H]2NC(=O)Nc2ccc(Cl)cc2)cc1` (racemic) [Example 20, rac-trans-2-(5-(3-(4-chlorophenyl)ureido)-4-(4-methoxyphenyl)-2-oxopiperidin-1-yl)acetamide], the EC50 in test [1] was less than 1 nM; in test [2], 1 to 1000 nM. Consider `COC(=O)CN1C[C@@H](NC(=O)Nc2ccc(Cl)cc2)[C@H](c2ccc(OC)cc2)CC1=O` (racemic) [Example 21, rac-trans-methyl 2-(5-(3-(4-chlorophenyl)ureido)-4-(4-methoxyphenyl)-2-oxopiperidin-1-yl)acetate], for which the EC50 in test [1] and in test [2] was less than 1 nM in each case. Take `COc1cc(F)c([C@@H]2CC(=O)NC[C@H]2NC(=O)Nc2ccc(Cl)cc2)c(F)c1` (racemic) [Example 23, rac-trans-1-(4-chlorophenyl)-3-(4-(2,6-difluoro-4-methoxyphenyl)-6-oxopiperidin-3-yl)urea]: the EC50 in test [1] is less than 1 nM; in test [2], 1 to 1000 nM. `COc1ccc([C@@H]2CC(=O)N(CC3CC3)C[C@H]2NC(=O)Nc2ccc(Cl)cc2)cc1` (racemic) [Example 24, rac-trans-1-(4-chlorophenyl)-3-(1-(cyclopropylmethyl)-4-(4-methoxyphenyl)-6-oxopiperidin-3-yl)urea]: the EC50 is less than 1 nM in test [1] and 1 to 1000 nM in test [2]. As to `CSc1ccc([C@@H]2CC(=O)NC[C@H]2NC(=O)Nc2ccc(Cl)cc2)cc1` (racemic) [Example 72, rac-trans-1-(4-chlorophenyl)-3-(4-(4-(methylthio)phenyl)-6-oxopiperidin-3-yl)urea], in test [2], the half-maximal effective concentration (EC50) fell in the range of 1 to 1000 nM.

Source of the values: patent US10265310B2, “6-membered cyclic amines or lactames substituted with urea and phenyl” (GRÜNENTHAL GMBH, priority 2016, dated 2019).
